This test has as its target human Nav1.7 (Homo sapiens (Human), UniProt Q15858). Kind of test: FLIPR sodium dye assay (CoroNa Green) with KCl and test article pre-incubation. Type of test: cell-based.
Setting [1] is: read-out: Nav1.7 Activity FLIPR assay IC50.
The mark [2] stands for this setting: recombinant human Nav1.7 in HEK293, veratridine and scorpion venom agonists, read-out: Nav1.7 Activity FLIPR assay IC50.

The values below come from patent US9163008B2, “Pyrimidines as sodium channel blockers” (Purdue Pharma, L.P., priority 2011, dated 2015).

Read-outs that look alike come from different tables or passages of the source.

Chain of human Nav1.7 (Q15858 other isoform, or with tags, fused parts or gaps): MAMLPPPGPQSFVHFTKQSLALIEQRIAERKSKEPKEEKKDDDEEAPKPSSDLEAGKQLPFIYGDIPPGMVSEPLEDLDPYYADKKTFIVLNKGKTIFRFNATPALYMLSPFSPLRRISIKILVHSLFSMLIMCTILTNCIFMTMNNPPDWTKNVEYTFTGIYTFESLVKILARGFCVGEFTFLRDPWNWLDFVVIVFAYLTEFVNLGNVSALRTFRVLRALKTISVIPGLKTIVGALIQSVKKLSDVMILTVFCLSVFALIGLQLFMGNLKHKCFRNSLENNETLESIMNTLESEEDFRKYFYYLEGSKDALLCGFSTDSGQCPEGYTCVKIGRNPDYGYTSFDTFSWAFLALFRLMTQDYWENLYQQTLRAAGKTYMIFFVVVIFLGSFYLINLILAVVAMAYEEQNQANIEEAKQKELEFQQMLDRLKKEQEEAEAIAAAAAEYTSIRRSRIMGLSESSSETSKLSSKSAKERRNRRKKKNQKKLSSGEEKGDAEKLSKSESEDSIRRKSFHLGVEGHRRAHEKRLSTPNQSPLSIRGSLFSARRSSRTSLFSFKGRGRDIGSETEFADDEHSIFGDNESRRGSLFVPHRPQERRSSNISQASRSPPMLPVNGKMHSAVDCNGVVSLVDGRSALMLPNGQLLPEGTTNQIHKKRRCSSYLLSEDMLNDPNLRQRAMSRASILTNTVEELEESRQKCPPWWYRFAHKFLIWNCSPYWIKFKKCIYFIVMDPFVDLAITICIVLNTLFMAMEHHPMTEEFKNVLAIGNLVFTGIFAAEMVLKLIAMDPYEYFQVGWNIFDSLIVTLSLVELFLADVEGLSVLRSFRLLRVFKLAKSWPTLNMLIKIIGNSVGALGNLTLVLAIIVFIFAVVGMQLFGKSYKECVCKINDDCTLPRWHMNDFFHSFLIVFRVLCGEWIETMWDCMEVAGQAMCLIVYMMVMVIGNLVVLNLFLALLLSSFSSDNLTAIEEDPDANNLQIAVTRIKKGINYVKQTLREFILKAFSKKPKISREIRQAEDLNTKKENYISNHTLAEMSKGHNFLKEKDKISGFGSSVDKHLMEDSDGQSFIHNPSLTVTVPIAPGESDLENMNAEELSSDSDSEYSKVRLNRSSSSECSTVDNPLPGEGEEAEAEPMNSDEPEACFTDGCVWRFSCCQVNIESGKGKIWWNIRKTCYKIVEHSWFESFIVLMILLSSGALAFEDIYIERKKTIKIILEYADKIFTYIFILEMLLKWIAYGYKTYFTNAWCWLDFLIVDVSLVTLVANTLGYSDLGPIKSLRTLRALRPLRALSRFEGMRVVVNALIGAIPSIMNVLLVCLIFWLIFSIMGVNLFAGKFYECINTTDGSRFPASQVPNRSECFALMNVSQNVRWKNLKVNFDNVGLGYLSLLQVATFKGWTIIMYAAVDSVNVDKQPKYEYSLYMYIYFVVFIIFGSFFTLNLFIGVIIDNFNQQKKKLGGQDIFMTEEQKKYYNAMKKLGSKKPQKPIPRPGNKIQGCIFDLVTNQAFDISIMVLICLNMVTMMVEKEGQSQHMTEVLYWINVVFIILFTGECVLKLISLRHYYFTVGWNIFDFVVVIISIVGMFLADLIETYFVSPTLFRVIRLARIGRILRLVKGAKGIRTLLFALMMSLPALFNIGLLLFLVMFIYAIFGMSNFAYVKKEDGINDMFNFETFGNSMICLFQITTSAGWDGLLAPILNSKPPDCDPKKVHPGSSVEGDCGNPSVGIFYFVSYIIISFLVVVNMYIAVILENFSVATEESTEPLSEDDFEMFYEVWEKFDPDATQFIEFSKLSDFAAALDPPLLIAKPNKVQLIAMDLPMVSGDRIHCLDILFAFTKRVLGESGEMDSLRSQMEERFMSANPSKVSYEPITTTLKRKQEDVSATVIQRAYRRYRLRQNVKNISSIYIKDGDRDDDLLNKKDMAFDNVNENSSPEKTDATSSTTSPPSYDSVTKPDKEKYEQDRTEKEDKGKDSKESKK

The IC50 is the concentration at which inhibition is half-maximal. In the case of `NC(=O)c1cc(NC2(C(N)=O)CC2)nc(-c2ccc(Oc3ccc(F)cc3)cc2)n1` [Cpd No. 8, 6-((1-carbamoylcyclopropyl)amino)-2-(4-(4-fluorophenoxy)phenyl)pyrimidine-4-carboxamide], the IC50 under setting [1] came out at 420 nM.
With `CCOC(=O)[C@@H]1Cc2ccccc2N1c1cc(C(N)=O)nc(-c2ccc(Oc3ccc(F)cc3)cc2)n1` [Cpd No. 16, (S)-ethyl 1-(6-carbamoyl-2-(4-(4-fluorophenoxy)phenyl)pyrimidin-4-yl) indoline-2-carboxylate], under setting [1], the IC50 is > 20000 nM.
`NC(=O)CCNc1cc(C(N)=O)nc(-c2ccc(Oc3ccc(F)cc3)cc2)n1` [Cpd No. 19, 6-((3-amino-3-oxopropyl)amino)-2-(4-(4-fluorophenoxy)phenyl)pyrimidine-4-carboxamide]: the 50% inhibitory concentration (IC50) under setting [2] is > 20000 nM.
Take `C[C@@H](C(N)=O)N(C)c1cc(C(N)=O)nc(-c2ccc(Oc3ccc(F)cc3)cc2)n1` [Cpd No. 20, (S)-6-((1-amino-1-oxopropan-2-yl)(methyl)amino)-2-(4-(4-fluorophenoxy)phenyl)pyrimidine-4-carboxamide]: the half-maximal inhibitory concentration (IC50) under setting [1] was determined as 220 nM.
As to `CC(Nc1cc(C(N)=O)nc(-c2ccc(Oc3ccc(F)cc3)cc2)n1)C(N)=O` (stereo not shown) [Cpd No. 22, 6-((1-amino-1-oxopropan-2-yl)amino)-2-(4-(4-fluorophenoxy)phenyl)pyrimidine-4-carboxamide], the concentration for half-maximal inhibition (IC50) under setting [1] stood at 550 nM.
In the case of `CC(CC(N)=O)Nc1cc(C(N)=O)nc(-c2ccc(Oc3ccc(F)cc3)cc2)n1` (stereo not shown) [Cpd No. 23, 6-((4-amino-4-oxobutan-2-yl)amino)-2-(4-(4-fluorophenoxy)phenyl)pyrimidine-4-carboxamide], the IC50 under setting [1] stood at 300 nM.
The molecule `NC(=O)c1cc(N2CCCC(C(N)=O)C2)nc(-c2ccc(Oc3ccc(F)cc3)cc2)n1` (stereo not shown) [Cpd No. 24, 6-(3-carbamoylpiperidin-1-yl)-2-(4-(4-fluorophenoxy)phenyl)pyrimidine-4-carboxamide] gave a concentration for half-maximal inhibition (IC50) of 10000 to 20000 nM.
For `C[C@H](Nc1cc(C(N)=O)nc(-c2ccc(Oc3ccc(F)cc3)cc2)n1)C(=O)O` [Cpd No. 28, (S)-2-((6-carbamoyl-2-(4-(4-fluorophenoxy)phenyl)pyrimidin-4-yl)amino)propanoic acid], the IC50 under setting [2] was in the range of 10000 to 20000 nM.
On to `O=C(O)c1cc(N2CCC[C@H]2C(=O)O)nc(-c2ccc(Oc3ccc(F)cc3)cc2)n1` [Cpd No. 29, (S)-6-(2-carboxypyrrolidin-1-yl)-2-(4-(4-fluorophenoxy)phenyl)pyrimidine-4-carboxylic acid], for which the IC50 under setting [2] is > 20000 nM.
Regarding `NC(=O)c1cc(N2CCC[C@H]2C(=O)O)nc(-c2ccc(Oc3ccc(F)cc3)cc2)n1` [Cpd No. 30, (S)-1-(6-carbamoyl-2-(4-(4-fluorophenoxy)phenyl)pyrimidin-4-yl)pyrrolidine-2-carboxylic acid], the 50% inhibitory concentration (IC50) under setting [2] is > 20000 nM.
Take `NC(=O)c1cc(N2c3ccccc3C[C@H]2C(=O)O)nc(-c2ccc(Oc3ccc(F)cc3)cc2)n1` [Cpd No. 31, (S)-1-(6-carbamoyl-2-(4-(4-fluorophenoxy)phenyl)pyrimidin-4-yl)indoline-2-carboxylic acid]: the IC50 under setting [2] was > 20000 nM.
For the molecule `COC(=O)[C@H](C)Nc1cc(C(=O)O)nc(-c2ccc(Oc3ccc(F)cc3)cc2)n1` [Cpd No. 33, (S)-2-(4-(4-fluorophenoxy)phenyl)-6-((1-methoxy-1-oxopropan-2-yl)amino)pyrimidine-4-carboxylic acid], the IC50 under setting [1] amounted to 970 nM.
`C[C@H](Nc1cc(C(N)=O)nc(-c2ccc(Oc3ccc(C#N)cn3)cc2)n1)C(N)=O` [Cpd No. 37, (S)-6-((1-amino-1-oxopropan-2-yl)amino)-2-(4-((5-cyanopyridin-2-yl)oxy)phenyl)pyrimidine-4-carboxamide]: the half-inhibitory concentration (IC50) under setting [2] fell in the range of 10000 to 20000 nM.
For `NC(=O)c1cc(NC[C@H](O)CO)nc(-c2ccc(Oc3ccc(F)cc3)cc2)n1` [Cpd No. 46, (S)-6-((2,3-dihydroxypropyl)amino)-2-(4-(4-fluorophenoxy)phenyl)pyrimidine-4-carboxamide], the IC50 under setting [2] is > 20000 nM.
In the case of `NC(=O)c1cc(N2CCNCC2CO)nc(-c2ccc(Oc3ccc(F)cc3)cc2)n1` (stereo not shown) [Cpd No. 48, 2-(4-(4-fluorophenoxy)phenyl)-6-(2-(hydroxymethyl)piperazin-1-yl)pyrimidine-4-carboxamide], under setting [1], the IC50 is 170 nM.
Regarding `NC(=O)c1cc(NC[C@H](O)C(N)=O)nc(-c2ccc(Oc3ccc(F)cc3)cc2)n1` [Cpd No. 50, (S)-6-((3-amino-2-hydroxy-3-oxopropyl)amino)-2-(4-(4-fluorophenoxy)phenyl)pyrimidine-4-carboxamide], under setting [2], the IC50 was > 20000 nM.
In the case of `NC(=O)c1cc(NC[C@H](O)C(=O)O)nc(-c2ccc(Oc3ccc(F)cc3)cc2)n1` [Cpd No. 51, (S)-3-((6-carbamoyl-2-(4-(4-fluorophenoxy)phenyl)pyrimidin-4-yl)amino)-2-hydroxypropanoic acid], the IC50 under setting [2] is > 20000 nM.
With `C[C@H](Nc1cc(C(N)=O)nc(-c2ccc(O)cc2)n1)C(N)=O` [Cpd No. 65, 6-((S)-1-Carbamoyl-ethylamino)-2-(4-hydroxy-phenyl)-pyrimidine-4-carboxylic acid amide], the IC50 under setting [1] is > 20000 nM.
In the case of `C[C@H](Nc1cc(C(N)=O)nc(-c2ccc(Oc3ccc(C#N)cc3)cc2)n1)C(N)=O` [Cpd No. 66, 6-((S)-1-Carbamoyl-ethylamino)-2-[4-(4-cyano-phenoxy)-phenyl]-pyrimidine-4-carboxylic acid amide], the 50% inhibitory concentration (IC50) under setting [2] amounted to 410 nM.
As for `C[C@H](Nc1cc(C(N)=O)nc(Oc2ccc(Cl)cc2-c2ccnc(N)c2)n1)C(N)=O` [Cpd No. 67, (S)-6-((1-amino-1-oxopropan-2-yl)amino)-2-(2-(2-aminopyridin-4-yl)-4-chlorophenoxy)pyrimidine-4-carboxamide], the 50% inhibitory concentration (IC50) under setting [2] was > 20000 nM.
For `C[C@H](Nc1cc(C(N)=O)nc(-c2ccnc(Oc3ccc(F)cc3)c2)n1)C(N)=O` [Cpd No. 68, (S)-6-((1-amino-1-oxopropan-2-yl)amino)-2-(2-(4-fluorophenoxy)pyridin-4-yl)pyrimidine-4-carboxamide], under setting [2], the half-inhibitory concentration (IC50) was > 20000 nM.
In the case of `C[C@H](Nc1cc(C(N)=O)nc(N2CCN(C(c3ccc(F)cc3)c3ccc(F)cc3)CC2)n1)C(N)=O` [Cpd No. 71, (S)-6-((1-amino-1-oxopropan-2-yl)amino)-2-(4-(bis(4-fluorophenyl)methyl)piperazin-1-yl)pyrimidine-4-carboxamide], the IC50 under setting [2] is > 20000 nM.
Consider `C[C@H](Nc1cc(C(N)=O)nc(Oc2ccc(C(F)(F)F)cc2-c2ccnnc2)n1)C(N)=O` [Cpd No. 72, (S)-6-((1-amino-1-oxopropan-2-yl)amino)-2-(2-(pyridazin-4-yl)-4-(trifluoromethyl)phenoxy)pyrimidine-4-carboxamide], for which the IC50 under setting [1] worked out at 1420 nM.
Same read-out and setting: in the case of `NC(=O)c1cc(N2CCC[C@H]2C(N)=O)nc(-c2ccc(Oc3ccc(C(F)(F)F)cc3)cc2)n1` [Cpd No. 91, (S)-6-(2-carbamoylpyrrolidin-1-yl)-2-(4-(4-(trifluoromethyl)phenoxy)phenyl)pyrimidine-4-carboxamide] it was 200 nM.
With `NC(=O)c1cc(N2c3ccccc3C[C@H]2C(N)=O)nc(-c2ccc(Oc3ccc(F)cc3)cc2)n1` [Example 36], under setting [2], the IC50 was > 20000 nM.
Turning to `C[C@H](Nc1cc(C(N)=O)nc(N2CCC3(CC2)Cc2ccccc2C3)n1)C(N)=O` [compound 73, (S)-6-((1-amino-1-oxopropan-2-yl)amino)-2-(1,3-dihydrospiro[indene-2,4′-piperidin]-1′-yl)pyrimidine-4-carboxamide], the IC50 under setting [1] was 1800 nM.
`NC(=O)c1cc(N2CCC[C@H]2C(N)=O)nc(-c2ccc(Oc3ccc(Cl)cc3F)cc2)n1` [compound 78, (S)-6-(2-carbamoylpyrrolidin-1-yl)-2-(4-(4-chloro-2-fluorophenoxy)phenyl)pyrimidine-4-carboxamide]: the IC50 under setting [1] was determined as 120 nM.
For the molecule `C[C@H](Nc1cc(C(N)=O)nc(N2CCC(Oc3ccc(C#N)cc3)CC2)n1)C(N)=O` [compound 100, (S)-6-((1-amino-1-oxopropan-2-yl)amino)-2-(4-(4-cyanophenoxy)piperidin-1-yl)pyrimidine-4-carboxamide], under setting [2], the 50% inhibitory concentration (IC50) came out at 4570 nM.
